Experimental data taken from patent US20050250137A1, “Molecular targets of cancer and aging” (priority 2002, published 2005).

Legend:
[1] = test system: immortal (high passage) MDAH041 cells; format: cell-based, human
[2] = test system: immortal (high passage) MDAH041 cells

## Nc1ncn([C@H]2C[C@H](O)[C@@H](CO)O2)c(=O)n1 [5-aza-dC, 5-aza-2′-deoxycytidine]
[1]
  (2-5′) oligoadenylate synthetase E gene OAS1 expression, MDAH041HP vs. MDAH0411HP 5aza: 1072↑ fold
  ALDH1A3 expression, IM vs 5-aza-dC, QP: 7.84 fold
  CIG49 expression, MDAH041HP vs. MDAH0411HP 5aza: 204↑ fold
  CLTB expression, IM vs 5-aza-dC, QP: 2.04 fold
  CREG expression, IM vs 5-aza-dC, QP: 2.88 fold
  HSPA2 expression, IM vs 5-aza-dC, QP: 2.74 fold
  IGFBP3 expression, IM vs 5-aza-dC, QP: 8.29 fold
  IGFBP4 expression, IM vs 5-aza-dC, QP: 7.00 fold
  Interferon-induced 17-kDa/15-kDA expression, MDAH041HP vs. MDAH0411HP 5aza: 443↑ fold
  Interferon-inducible 56 kDa protein expression, MDAH041HP vs. MDAH0411HP 5aza: 1807↑ fold
  Interferon-inducible membrane protein 9-27 (IFITM1) expression, MDAH041HP vs. MDAH0411HP 5aza: 278↑ fold
  Interferon-inducible protein p78 expression, MDAH041HP vs. MDAH0411HP 5aza: 480↑ fold
  Interferon-regulatory factor 7B expression, MDAH041HP vs. MDAH0411HP 5aza: 20031↑ fold
  KIAA1750 expression, IM vs 5-aza-dC, QP: 3.86 fold
  MGSF expression, MDAH041HP vs. MDAH0411HP 5aza: 800↑ fold
  MIF expression, MDAH041HP vs. MDAH0411HP 5aza: 130↑ fold
  NDN expression, MDAH041HP vs. MDAH0411HP 5aza: 10↑ fold
  OPTN expression, IM vs 5-aza-dC, QP: 9.21 fold
  SERPINB2 expression, IM vs 5-aza-dC, QP: 12.90 fold
  STAT 1, 91 kD expression, MDAH041HP vs. MDAH0411HP 5aza: 158↑ fold
  STAT1α expression, IM vs 5-aza-dC, QP: 119.85 fold
  TNFAIP2 expression, IM vs 5-aza-dC, QP: 6.10 fold
  additional increase in hTERT RNA expression: 17 fold
[2]
  2-5A synthetase induced by interferon OAS-1 expression: 76.5 fold
  2-5 oligoadenylate synthetase 59 kDa OAS-L expression: 40.0 fold
  041 5-aza Ave Signal Log: 0.93
  (2-5′) oligoadenylate synthetase 59 kDa isoform OAS-L expression: 40.0 fold
  ALDH1A3 expression, 5A: 2.8 fold
  ALDH1A3 expression, IM vs 5-aza-dC, MA: 2.8 fold
  Adlican expression: 17.6 fold
  Aldehyde dehydrogenase 6 expression: 4.1 fold
  Aortic carboxypeptidase-like protein expression: 12.3 fold
  Associated molecule with the SH3 domain of STAM expression: 7.6 fold
  B2-bradykinin receptor, 3 expression: 3.8 fold
  B94 protein (tumor necrosis factor-alpha-inducible) expression: 5.5 fold
  BAC clone RG118D07 from 7q31 expression: 5.5 fold
  BST-2 (bone marrow stroma cell surface gene) expression: 38.7 fold
  Beta-thromboglobin-like protein expression: 17.5 fold
  Bone morphogenetic protein 2A expression: 9.9 fold
  CDNA DKFZp564H142 expression: 9.5 fold
  CIG5 (cytomegalovirus induces interferon-responsive) expression: 66.6 fold
  CIG5 vipirin expression: 67.0 fold
  CIG49 (cytomegalovirus induces interferon-responsive) expression: 70.2 fold
  CIG49 Interferon-induced protein with tetratricopepide repeats 4 expression: 70.2 fold
  CLTB expression, 5A: 1.5 fold
  CLTB expression, IM vs 5-aza-dC, MA: 1.5 fold
  CREG expression, 5A: 2.2 fold
  CREG expression, IM vs 5-aza-dC, MA: 2.21 fold
  CYP1B1 expression, 5A: 8.2 fold
  Carbonic anhydrase precursor (CA 12) expression: 8.9 fold
  Complement cytolysis inhibitor (CLI) expression: 5.1 fold
  Complement factor H expression: 6.8 fold
  Cysteine-rich heart protein expression: 8.8 fold
  Cytokine (GRO-beta, GRO-2) expression: 29.6 fold
  Cytokine (GRO-gamma) expression: 56.8 fold
  DUSP6 (dual specificity MAP kinase-phosphatase) expression: 4.6 fold
  Dickkopf-1 (hdkk-1) expression: 14.4 fold
  Dioxin-inducible cytochrome P450 (CYP1B1) expression: 6.9 fold
  Dual-specificity protein phosphatase expression: 12.6 fold
  FLJ14675 expression, 5A: 3.8 fold
  Factor H homologue expression: 7.5 fold
  Fibulin-2 expression: 21.8 fold
  Gamma-interferon-inducible protein (IP-30) expression: 31.2 fold
  Genes for histones H2B.1 and H2A expression: 4.3 fold
  Gravin expression: 12.2 fold
  HEM45 (interferon-stimulated gene, 20-kd; ISG20) expression: 50.2 fold
  HEM45, ISG-20 expression: 50.2 fold
  HLA class I locus C heavy chain expression: 5.7 fold
  HLA-F, gene for major histocompatibility complex class I F expression: 29.4 fold
  HPS5 expression, 5A: 1.6 fold
  HSPA2 expression, 5A: 1.6 fold
  HSPA2 expression, IM vs 5-aza-dC, MA: 1.6 fold
  HTATIP2 expression, 5A: 5.6 fold
  IGFBP3 expression, IM vs 5-aza-dC, MA: 2.48 fold
  IGFBP4 expression, IM vs 5-aza-dC, MA: 3.72 fold
  Inhibitor of apoptosis protein 1 expression: 13.1 fold
  Insulin-like growth factor binding protein 6 expression: 5.9 fold
